Molecular target: T1, SapB (Homo sapiens, UniProt P07602)
T1 construct: made in house; host or cells: E. coli
T1 sequence (P07602 195-273 limits assumed): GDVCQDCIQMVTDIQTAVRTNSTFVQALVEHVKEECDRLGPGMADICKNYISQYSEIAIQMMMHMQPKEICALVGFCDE
Assay: Fluorescence quenching titration of SapB with ligand (double logarithmic Stern-Volmer analysis)
Assay type: binding
Description: A2E and SapB were prepared and purified according to literature reports. To determine the A2E/protein binding stoichiometry, a fluorescence titration was carried out by incrementally adding small amounts of A2E to a solution of SapB (FIG. 2). […] A double logarithmic plot of
Fluorescence quenching measurements were performed on a Varian Cary Eclipse fluorimeter equipped with a QNW Peltier temperature controller. The experiments were conducted at 25.00±0.01° C. in 50 mM phosphate buffer, pH 5.50 or 7.40 using 278 nm excitation wavelength for sapB emission spectra at 325 nm (FIG. 2) or 444 nm excitation for A2E emission at 602 nm (FIG. 3) with excitation and emission monochromators bandwidth of 5 nm each. The fluorescence quenching data were analyzed using OriginLab software version 8.
The interaction of SapB (prepared as described above) with a variety of ligands was followed by monitoring the quenching of the fluorescence intensities of the protein's tyrosine residues upon binding (FIG. 12 Panels a-f).
For each ligand tested 40 μM SapB in 50 mM phosphate buffer at pH 5.5 was titrated with ligand and quenching was monitored at the fluorescence maxima at 330 nm. […] All of the fluorescence data were analyzed by a double logarithmic Stern-Volmer plot, shown for all ligands, using the emission maxima to determine binding affinity, presented in Table 3, and using the following equation
Materials and Methods—Saposin B (SapB) was prepared and purified as described above. Briefly, SapB solutions in this study were prepared in 50 mM phosphate buffer, pH 5.5. […] Ligand solutions were prepared in 100% dimethylformamide (DMF) to a concentration of 2 mM, with the exception of hydoxychloroquine (HCQ), which was prepared in 50 mM phosphate buffer, pH 5.5. […] 4.2. Fluorescence Spectroscopy. Fluorescence quenching measurements were performed on a Varian Cary Eclipse fluorimeter equipped with a QNW Peltier temperature controller. The binding experiments were conducted at 25.00±0.01° C. in 50 mM phosphate buffer, pH 5.5, using 278 nm excitation wavelength for SapB emission spectra at 330 nm (FIG. 1a-f) with excitation and emission monochromators bandwidth of 5 nm each. Temperature sensitive binding experiments were performed between 20.00±0.01 and 40.00±0.01° C. using 278 nm excitation wavelength for SapB emission spectra at 331 nm, with excitation and emission monochromators bandwidth of 5 nm each. The fluorescence quenching data were analyzed using OriginLab software version 8.

binding stoichiometry from double logarithmic plot: ~1 A2E per SapB dimer
LogKA of binding by SapB (40 μM SapB, 50 mM phosphate buffer pH 5.5, average of three runs): 4.680
binding affinity (KA), A2E to SapB (double logarithmic plot, 50 mM phosphate buffer pH 5.5, 25° C.): ~4e+06 M⁻¹
Kd (read-out: KD, SapB binds A2E): 25 µM
binding stoichiometry, discontinuity of fluorescence quenching at 308 nm (titration of SapB with A2E): ~0.5 A2E/protein
SMILES: CC(C=CC1=C(C)CCCC1(C)C)=CC=CC(C)=Cc1cc(C=CC=C(C)C=CC2=C(C)CCCC2(C)C)cc[n+]1CCO [A2E, N-retinylidene-N-retinylethanolamine]
